Results as given in US8835392B2, “Mimetic peptides and the use thereof in the form of 20S, 26S and immunoproteasome inhibitors” (Technische Universität, priority 2005, dated 2014).
Entries after “also recorded” stand apart in the source; their conditions may differ. Where a SMILES comes first, the peptide text is derived from it. [ ]: non-standard residue; d: D form. The star is where a group is joined. Leu(ol) = CC(C)C[C@H](N)CO; Cbz = O=C(OCc1ccccc1)*; Boc = CC(C)(C)OC(=O)*; OBn = c1ccc(CO*)cc1; OtBu = CC(C)(C)O*; CH2Cl = ClC*

Assays:
20S proteasome = tested on: T1, 20S proteasome; test: Inhibition of the different proteasomal activities, summary statements; type: biochemical; settings: isolated proteasomes, specific substrates
T1 construct: Proteasomes were isolated from red blood cells; from tissue; host or cells: red blood cells
Experimental: The specific inhibition of a single catalytic site is of specific interest for the development of drugs. Thus, the inhibition of the different proteasomal activities of the proteasome was analysed (see also example 6). The different cleavage-preferences of the proteasome were determined by the specific substrate for the hydrophobic (chymotrypsin-like), the trypsine-like and the caspase-like activities of isolated proteasomes.
(§1) Suc-LLVY-AMC, Z-VGR-AMC and LLE-AMC (BACHEM, Calbiochem) was used, in order to determine the chymotrypsin-like, trypsin-like or caspase-like (post-acidic)-activities of the proteasome. Substrate was incubated with proteasome at 37° C. in assay-buffer (20 mM Tris/Cl, pH 7.2, 1 mM EDTA, 1 mM DTT) for one hour. 100 ng proteasome was pre-incubated with 0.01-10 μM of the inhibitor for […]. The reaction was started by the addition of substrate (50 μM). The AMC as released was detected using fluorescence emission at 460 nm (excitation at 390 nm) using a TECAN-fluorimeter. The activity was calculated in fluorescence-units. The inhibition is depicted by IC50-values.
(§2) The effects thereof were compared with the one of the commonly used proteasomal inhibitor 3 (MG132). The chymotrypsin-like (Suc-LLVY-AMC), the trypsin-like (Bz-VGR-AMC), and the caspase-like (Z-LLE-AMC)-activities of 20S proteasomes were determined following incubation for one hour at 37° C.

[1] = molecular target: T2, 20S proteasome β1 caspase-like activity (LLE-MCA) (Homo sapiens, UniProt P28072+Q99436); test: Protease assay, caspase-like activity of isolated 20S proteasomes; type: biochemical; settings: isolated 20S proteasome; LLE-MCA 50 μM; 15 min pre-incubation; read-out: IC50 β1 Caspase-like (E)
T2 construct: Proteasomes were isolated from red blood cells; from tissue; host or cells: red blood cells
Experimental: (§3) Proteasomes were isolated from red blood cells. Cells were lysed with DTT (1 mM), and the stroma-free supernatant was loaded on DEAE-sepharose (Toyopearls). Proteasome was eluted with an NaCl-gradient in TEAD (20 mM TrisCl pH 7.4, 1 mM EDTA, 1 mM azide, 1 mM DTT) of 100 to 300 mM NaCl. Proteasome was concentrated using ammonium sulfate-precipitation (between 40 and 70% saturation) and was separated in a 10-40% sucrose-gradient through centrifugation at 40.000 rpm for 16 hours (SW40; L7, Beckman & Coulter). Finally, the proteasomes were purified on a MonoQ-column and eluted with an NaCl-gradient at about 280 mM NaCl. The fractions containing purified proteasome were dialysed against 50 mM NaCl in TEAD and stored on ice. The purity was determined using SDS-PAGE.
as §1, §2
(§4) The IC50-values form the inhibition of the proteasome were calculated at increasing concentrations of the inhibitor. The samples were pre-incubated for 15 min in ice. The assay was started through the addition of 50 μM of one of the following fluorogenic peptide substrates:
(§5) The release of MCA was determined at 460 nm emission (excitation 390 nm). The IC50-values as calculated for MG132 served as controls.

[2] = molecular target: T3, 20S proteasome β2 trypsin-like activity (VGR-MCA) (Homo sapiens, UniProt P49720+Q99436); test: Protease assay, trypsin-like activity of isolated 20S proteasomes; type: biochemical; settings: isolated 20S proteasome; VGR-MCA 50 μM; 15 min pre-incubation; read-out: IC50 β2 Trypsin-like (R)
T3 construct: Proteasomes were isolated from red blood cells; from tissue; host or cells: red blood cells
Experimental: as §3, §1, §2, §4, §5

[3] = molecular target: T4, 20S proteasome β5 chymotrypsin-like activity (Suc-LLVY-AMC) (Homo sapiens, UniProt P20618+P28074); test: Protease assay, chymotrypsin-like activity of isolated 20S proteasomes (LLVY substrate); type: biochemical; settings: isolated 20S proteasome; LLVY-MCA 50 μM; 15 min pre-incubation; read-out: IC50 β5 Chymotrypsin-like (Y)
T4 construct: Proteasomes were isolated from red blood cells; from tissue; host or cells: red blood cells
Experimental: as §3, §1
The chymotrypsin-like (Suc-LLVY-AMC), the trypsin-like (Bz-VGR-AMC), and the caspase-like (Z-LLE-AMC)-activities of 20S proteasomes were determined following incubation for one hour at 37° C.
as §4, §5

[4] = molecular target: T5, proteasomal activity in HeLa-cells (Homo sapiens, UniProt P20618+P28074); test: Intracellular inhibition of proteasomes in cultivated HeLa-cells; type: cell-based; settings: for reduction of the specific proteasomal activity in cells: 1 μM; for membrane-permeation / stability during the incubation periods: cultivated cells
T5 construct: endogenous in cells; host or cells: HeLa
Experimental: (§6) A, HeLa-cells were cultivated were 24 hours in the presence of the inhibitor. The protein concentration was determined in accordance with the cellular lysis according to Bradford in order to normalise the proteasomal activities to the different amounts of cells. Subsequently Complete (Roche) was added to all lysates, and the proteasomal activity was determined through the hydrolysis of Suc-LLVY-AMC. B, HeLa-cells was incubated with 1 μM of compound 15 for 2, 4, 6 and 24 hours. Cells were lysed, and proteins were separated through SDS-PAGE on a 10% gel, blotted to a PVDF-membrane. The accumulation of the poly-ubiquitinylated proteins was detected in a Western blot by an anti-ubiquitine-antibody (DAKO). C, HeLa-Cells were treated with increasing concentrations of the inhibitor 15, 25, 26, 27, and 28 for 24 hours (lane 1: without inhibitor; lane 2: 10 nM; lane 3: 100 nM and lane 4: 1 μM of the given inhibitor). Cells were lysed, proteins were separated on 15% gels, and the accumulation of the poly-ubiquitinylated proteins was controlled through Western blot.
HeLa-Cells were cultivated in RPMI, supplemented with 10% FCS and penicillin/streptomycin, at 5% CO2. Inhibitors were administered from 100×-stock solutions (in DMSO) at the final concentrations as indicated, and incubated with the cells for at least 20 hours.
Cultivated cells (HeLa) were harvested lysed and with 0.1% NP40 in TEAD in the presence of the commercially available protease-inhibitor-mixture Complete (Roche). The proteasomal activity was measured in 10 μl of the lysate using Suc-LLVY-AMC as a substrate. The protein content was quantified by means of Bradford (Protein assay; BioRad).
An application on cell cultures or animals requires that the concentrations of the inhibitors are chose as low as required. The specific proteasomal activity was reduced to a value of below 50% in cells that were treated with 1 μM of the compounds 15, 22, 25, 26, or 28, respectively (FIG. 6A).

[5] = Hydrolytic stability of dichlorovinylethers; type: physicochemical; settings: for stability at pH 11: converted into α-chloroacetates
Description: The non-selective dichlorovinylester 1 (see FIG. 1), which readily reacts with all possible nucleophiles, such as, for example, cysteine, serine and finally also threonine, served as a further lead-structure for the syntheses of compounds according to the invention. In addition, the aim was pursued to reduce the inherent over-activation of this compound. The “removal” of the acyl group of 1 could reduce the non-specific hydrolysis through ubiquitary nucleophiles, and results in quite stable dichlorovinylethers (28). […] This dual reactivity which is provided in a cascade-like reaction, corresponds to the specific requirements for an N-terminal threonine-protease-inhibitor.

[6] = tested on: poly-ubiquitinylated proteins in HeLa-cells; test: Accumulation of poly-ubiquitinylated proteins, Western blot; type: cell-based; settings: 1 μM for compound 15
Experimental: as §6
A specific inhibition of the proteasome lead to an accumulation of poly-ubiquitinylated proteins. Indeed, the amount of poly-ubiquitinylated proteins increased during the incubation with the inhibitors. First effects were observed after 2 hours, for compound 15 (FIG. 6B) as well as for compounds 20, 22, 25 and 28 (data not shown).
50 μg of whole-cell-lysate were separated by SDS-PAGE, and blottet onto a PVDF-membrane (Millipore). The blots were blocked by means of a 5% milk-suspension. The poly-ubiquitinylated proteins were detected by anti-ubiquitin-antibody (DAKO), and anti-rabbit, POD-labelled, as a secondary antibody (DIANOVA), and visualized through ECL.

HeLa-cells = test: Viability of HeLa-cells, crystal violet-staining; type: cell-based; settings: 10 μM, 20 hours
Experimental: A, The viability of HeLa-Cells that were incubated with the compounds 7-28 and MG132 (1 μM), was determined using crystal-violet-staining after 20 h.
B, The viability of HeLa-Cells is dependent from the concentration of the inhibitor. HeLa-cells were cultivated for 20 hours in the presence of increasing concentrations (10 to 10000 nM) of the compounds (7, 13, 15, 18, 20-22, 24-28) and MG 132. The survival of the cells was determined using crystal-violet-staining.
The viability of Hela-Cells in the presence of different compounds was tested in […]. The viability of HeLa-cells was tested through crystal violet-staining following the incubation with the inhibitors. The cells were washed once with PBS, fixed with 1% glutardialdehyde for 30 min, and washed again. Finally, the fixed cells were stained with 0.1% crystal violet in PBS for 30 min, and subsequently carefully washed with water, in order to remove unbound dye. The residual dye was eluted with 0.1% Triton X-100 in PBS, and determined at 550 nm.

SMILES | IC50 [1] | IC50 [3] | which proteasomal activities are inhibited (site selectivity) (20S proteasome) | also measured
CC(C)C[C@@H](CO)NC(=O)[C@H](CC(=O)OC(C)(C)C)NC(=O)[C@H](CC(C)C)NC(=O)OCc1ccccc1 [Compound 8] (Cbz-Leu-Asp(OtBu)-[Leu(ol)]) | > 10 µM | > 10 µM | exclusive inhibition of the trypsin-like activity; also recorded: specifically reduced the trypsine-like activity | IC50 [2]: 5.48 µM
CC(C)C[C@@H](CO)NC(=O)[C@H](CC(=O)OCc1ccccc1)NC(=O)[C@H](CC(C)C)NC(=O)OCc1ccccc1 [Compound 11] (Cbz-Leu-Asp(OBn)-[Leu(ol)]) |  | > 10 µM |  | 
CC(C)C[C@@H](CO)NC(=O)[C@H](CC(=O)OCc1ccccc1)NC(=O)[C@H](CC(C)C)NC(=O)OC(C)(C)C [Compound 12] (Boc-Leu-Asp(OBn)-[Leu(ol)]) |  | > 10 µM |  | 
CC(C)C[C@@H](C=O)NC(=O)[C@H](CC(=O)O)NC(=O)[C@H](CC(C)C)NC(=O)OCc1ccccc1 [Compound 16] (Cbz-Leu-Asp-Leu-aldehyde) | > 10 µM | 7.26 µM | exclusive reduction of the chymotryptic activity | IC50 [2]: > 10 µM
CC(C)C[C@H](NC(=O)OCc1ccccc1)C(=O)N[C@@H](CC(C)C)C(=O)N[C@H](COC(Cl)=CCl)c1ccccc1 [Compound 19] |  |  |  | stability in acidic environment [5]: tolerate an acidic environment; stability at pH 11 [5]: hydrolysed readily
CC(C)C[C@@H](COC(Cl)=CCl)NC(=O)[C@H](CC(C)C)NC(=O)[C@H](CC(C)C)NC(=O)OCc1ccccc1 [Compound 20] | > 10 µM | > 10 µM |  | IC50 [2]: > 10 µM; first effects on accumulation of poly-ubiquitinylated proteins observed after [6]: 2 h; stability in acidic environment [5]: tolerate an acidic environment; stability at pH 11 [5]: hydrolysed readily
CC(C)CC(NC(=O)C(CC(C)C)NC(=O)C(CC(C)C)NC(=O)OCc1ccccc1)C(=O)CCl (stereo not drawn) [Compound 22] (Cbz-Leu-Leu-Leu-CH2Cl; configuration not given here) |  | 2.2 µM | exclusive reduction of the chymotryptic activity | reduction of the proteolytic activity in cells at 10 nM ([4]; HeLa cells, 10 nM): reduction of the proteolytic activity; membrane-permeation [4]: membrane-permeation; stability during the incubation periods [4]: sufficient stability; first effects on accumulation of poly-ubiquitinylated proteins observed after [6]: 2 h
CC(C)C[C@H](NC(=O)OCc1ccccc1)C(=O)N[C@@H](CC(C)C)C(=O)N[C@@H](CC(C)C)C(=O)C(=O)NCc1cccnc1 [Compound 27] | 7.97 µM |  | inhibited the chymotryptic and the caspase-like sites | rate of survival of HeLa-cells (HeLa-cells): markedly reduced; reduction of the specific proteasomal activity in cells ([4]; HeLa cells): markedly reduction

Second part, led by results:

IC50 [1] | IC50 [3] | SMILES | which proteasomal activities are inhibited (site selectivity) (20S proteasome) | also measured
 | > 10 µM | CC(=O)N[C@@H](CC(C)C)C(=O)N[C@@H](CC(=O)OC(C)(C)C)C(=O)N[C@H](CO)CC(C)C [Compound 9] (Ac-Leu-Asp(OtBu)-[Leu(ol)]) |  | 
 | > 10 µM | CC(=O)N[C@@H](CC(C)C)C(=O)N[C@@H](CC(=O)OCc1ccccc1)C(=O)N[C@H](CO)CC(C)C [Compound 10] (Ac-Leu-Asp(OBn)-[Leu(ol)]) |  | 
3.12 µM | 1.73 µM | CC(C)C[C@@H](C=O)NC(=O)[C@H](CC(=O)OCc1ccccc1)NC(=O)[C@H](CC(C)C)NC(=O)OCc1ccccc1 [Compound 18] (Cbz-Leu-Asp(OBn)-Leu-aldehyde) | inhibited the chymotryptic and the caspase-like sites | reduction of the specific proteasomal activity in cells ([4]; HeLa cells): very weak inhibition
4.04 µM | 0.981 µM | CC(C)C[C@H](NC(=O)OCc1ccccc1)C(=O)N[C@@H](CC(C)C)C(=O)N[C@@H](CC(C)C)C(O)C(=O)Nc1ccccc1 (stereo partly shown) [Compound 25] | inhibited the chymotryptic and the caspase-like sites | membrane-permeation [4]: membrane-permeation; stability during the incubation periods [4]: sufficient stability; first effects on accumulation of poly-ubiquitinylated proteins observed after [6]: 2 h
